The record followed here is a melting point compilation (Tetko et al.; mined from patent text by program, amines drawn as free bases though some values may be those of a salt).

By melting point is commonly meant the temperature, or range, at which the solid turns liquid.

Compound `NC(=O)[C@@H]1[C@H](Nc2c(Br)cnc3[nH]c(-c4ccoc4)nc23)[C@H]2C=C[C@@H]1C2` yielded a melting point of 231 to 232 °C. As for `CC(=O)c1ccc(-c2ccccc2)cc1O`, the figure is 90 to 92 °C. To `CNc1cc(OCC(O)CN2C(=O)CCC2=O)ccc1[N+](=O)[O-]` (stereo not drawn) belongs 152 °C; to `CC[C@@H](c1ccccc1)N(Cc1ccc(C(N)=O)cc1)S(=O)(=O)c1ccc(Cl)cc1`, 158 to 159 °C. `Cc1sc(CCc2ccc(C=O)cc2)nc1-c1ccccc1` showed a melting point of 66 to 67 °C.

For `N#Cc1cnn(-c2ccc(Cl)c(Cl)c2Cl)c1NC(=O)CCCCl`, the melting point was 173 to 174 °C. As for `CCCC(=O)c1cnn(C)c1S(=O)(=O)NC(=O)Nc1nc(C)nc(OC)n1`, the figure is 174 to 176 °C. Compound `CC(CO)Nc1c(Br)cnc2cc(Cl)ccc12` (stereo not drawn) had a melting point of 145 to 147 °C. As for `C#CCOc1nsc(-c2ccccc2)n1`, the melting point stood at 66.9 °C.

`CCCCc1nc2cccc(C(=O)OC)c2[nH]1`: the melting point worked out at 85 °C. To `CC(C)C[C@H](NC1CCOCC1)C(=O)O` belongs greater than 300 °C; to `COc1ccc(C(=O)COc2ccccc2Br)cc1`, 104 °C; to `O=C(O)Cn1c2ccccc2c2sccc(=O)c21`, 275 to 278 °C. As for `Cc1cc(C)c(C(=O)P(=O)(CC(C)C)C(=O)c2c(C)cc(C)cc2C)c(C)c1`, the figure is 85 to 86 °C.

Turning to `CCCC(C(C)=CC(CNC(=O)c1cccnc1)=NO)[N+](=O)[O-]` (stereo not drawn), the melting point lay within 128 to 131 °C.

`CN(C)c1cc(CO)cc(N(C)C)c1N1CCCCC1` had a melting point of 90 to 92 °C. Turning to `CCC(=NOc1ccc(Cl)cc1)c1cc(Cl)ccc1NS(=O)(=O)C(F)(F)F`, the melting point lay in the range of 87 to 88 °C. `c1cc(CN2CCOCC2)c(CN2CCOCC2)s1`: the melting point fell in the range of 58 to 60 °C. To `CCC(CC)N(Cc1ccc(C(=O)O)cc1)S(=O)(=O)c1ccc(C)cc1` belongs 86 to 88 °C; to `COc1cccc2c(CBr)coc12`, 91 to 93.5 °C; to `O=c1c2ccccc2nnn1CCCCl`, 69 °C. To `NSc1nccnc1Cl` belongs 113 to 114 °C; to `CNC(=O)n1sc(OC2CCCCC2)nc1=O`, 121 °C; to `CCOc1nn(-c2ccc(C(F)(F)F)cn2)cc1CCCOc1cccc(OC)c1CC(=O)O`, 150 to 151 °C. As for `Cc1ccc(C[C@@H]2CN(C(=O)/C=C/c3ccc(C(F)(F)F)cc3)CCN2C(=O)c2cc(C(F)(F)F)cc(C(F)(F)F)c2)cc1C`, the figure is 74 to 76 °C; as for `CCOC(=O)c1c(-c2ccc(OC)c(OC)c2)c2cc(C)ccc2[nH]c1=O`, 220 to 221 °C. `O=C(O)CC(=O)Oc1cccc(-c2cn3c(n2)sc2ccccc23)c1` gave a melting point of 159 to 161 °C. `COc1ccc(C(CSc2ccccc2N)C(=O)O)cc1` (stereo not drawn): the melting point was 118 °C. `COc1ccc2nccc(NC(=O)N3CCN(CCc4cnc5ccccc5n4)CC3)c2n1`: the melting point lay in the range of 138 to 140 °C. In the case of `CCNc1nc(NCc2ccco2)nc(Nc2ccc(O)cc2)n1`, the melting point is 76 to 78 °C. For `COc1cc(OC)cc(C2=N[C@H]3CCN(C)C[C@H]3c3ccccc32)c1` (relative stereo), the melting point fell in the range of 123 to 124 °C.

As for `Fc1cccc(F)c1C1=NC(c2ccc(-c3ccc(OCc4ccc(C(F)(F)F)cc4)cc3)cc2)CO1` (stereo not drawn), the melting point is 166 °C. To `COC(=O)[C@@H](O)[C@H](CC(C)C)NC(=O)[C@H](Cc1c[nH]cn1)NC(=O)[C@H](Cc1cccc2ccccc12)NC(=O)OCc1ccccc1` belongs 110 to 114 °C. As for `CC(c1ccnnc1)C(O)(Cn1cncn1)c1ccc(Cl)cc1Cl` (stereo not drawn), the figure is 174 to 177 °C; as for `O=C(O)CN1C(=O)COc2cc(F)ccc21`, 183 to 184 °C.

Consider `CCCCOc1ccc(S(=O)(=O)C2(C(=O)NO)CCN(Cc3ccc(OC)cc3)CC2)cc1`, for which the melting point was found to be 173 °C. With `CCCCc1cccc(NC(=O)C=C(C)OC)c1`, the melting point worked out at 36 °C. `O=C(CC1C2=C(CCCC2)C(=O)N1c1ccc(Cl)cc1)N1CCCCC1` (stereo not drawn) registered a melting point of 120 to 122 °C. As for `C#CCOc1cc(Cl)cc(Cl)c1OCC#C`, the figure is 61 to 63 °C; as for `Cn1c2ccc(Cl)cc2c2c3ccccc3c(=O)[nH]c21`, greater than 300 °C. To `COC1(c2cccc(OCc3ccc(-n4ccnc4)cc3)c2)CCOCC1` belongs 129 to 130 °C. Compound `COCc1c(C(=O)OC(C)C)ncc2[nH]c3cccc(-c4cccs4)c3c12` came in with a melting point of 160 to 162 °C.

In the case of `Cc1ccc(C(=O)Cn2c(=O)sc3ccccc32)cc1`, the melting point was in the range of 168 to 170 °C. To `O=c1cc(OCc2ccccc2)cc(C=Cc2ccc3c(c2)OCO3)o1` belongs 150 to 152 °C. As for `CC(C)Cn1c(=O)n(C)c(=O)c2c(Sc3nccs3)c(C(=O)c3ccnc4ccccc34)sc21`, the figure is 167 to 168 °C. To `COc1cc(COc2nn(-c3ccccc3)cc2C(=O)O)ccc1OCc1nc(-c2ccco2)oc1C` belongs 184 to 185 °C; to `CCOC(=O)CNC(=O)Cn1c(-c2cccc(Cl)c2)nc2cccnc21`, 144 to 145 °C; to `Cc1ccc2c(C(=O)NCCc3ccccc3)c(Cl)ccc2n1`, 170 to 172 °C. In the case of `CC1(c2ccc(C#N)cc2)Cc2cc(O)c(Cl)c(Cl)c2C1=O` (stereo not drawn), the melting point is 189 to 196 °C. As for `O=c1c2[nH]nnc2nc2sc(CCc3ccccc3)nn12`, the figure is 295 to 296 °C; as for `Cc1ccc(C)n1-c1ccc2c(c1)ncn2-c1cccc(-n2ccnc2)c1`, 141 to 142 °C. As for `COc1nscc1C(N)=O`, the figure is 165 to 168 °C. Take `CC(C)(C)C1(O)CCCCC1`: the melting point was in the range of 49 to 50 °C. Compound `Cn1c(C(F)(F)F)nn(-c2cc(F)c(C#N)cc2F)c1=O` had a melting point of 74 °C. As for `CCCCCC(=O)c1c(C)n(C(C)=O)c(=O)n1C(C)=O`, the melting point lay in the range of 71 to 72 °C.

The compound `CCn1ccc(Nc2cc(-c3cccc(N4Cc5cc(C(C)(C)C)ccc5C4=O)c3CO)cn(C)c2=O)n1` showed a melting point of 175 to 177 °C. As for `O=c1[nH]c2ncc(-c3cnc4[nH]cnc4c3)nc2n1CC1CCOCC1`, the figure is 367 to 370 °C. To `CC1CC2C3CCC4=CC(=O)C=CC4(C)C3=CCC2(C)C1C(=O)CN1CCN(c2cc(NCC(C)(C)C)nc(NC(C)(C)C)n2)CC1` (stereo not drawn) belongs 155 to 160 °C; to `CC(C)(C)OC(=O)CCOCCCc1ccnc(-c2nc(=O)c3ccccc3s2)c1`, 81.1 to 82.2 °C.

Take `O=C(CCCCl)c1cc2c(s1)SCCNC2=O`: the melting point lay within 124 to 125 °C.

Take `CC(C)Cn1c(CNC(=O)OC(C)(C)C)c(-c2ccc(Cl)cc2)c2cc(O)ccc2c1=O`: the melting point fell in the range of 220 to 221 °C. To `CCOC(=O)C(C)(C)Oc1ccc(OCCn2c(=O)sc3cc(C(=NO)c4ccccc4)ccc32)cc1` belongs 60 to 62 °C; to `COC(=O)c1ccc(OC(=O)c2cccc(C(=O)Oc3ccc(C(=O)OC)cc3)c2)cc1`, 215 to 217 °C. `Cn1nc(-c2ccc3cc(O)ccc3c2)c2ccc(O)cc21` displayed a melting point of 290 to 292 °C.

Turning to `COC(=O)c1nsc2nccn12`, the melting point lay in the range of 164 to 165 °C.

Consider `Nc1nnc2ccc(-c3ccco3)nn12`, for which the melting point lay in the range of 203 to 206 °C.

Compound `COC(=O)Cn1c(C(=O)NC(N)=S)cc2cc(C)ccc21` yielded a melting point of 222 to 224 °C.

The compound `O=S(=O)(Cl)c1ccc2ccc(Br)cc2c1` registered a melting point of 100 to 101 °C. As for `CC(=O)NC[C@H]1CN(c2ccc(N3CCNC(=O)CC3)c(F)c2)C(=O)O1`, the figure is 140 to 146 °C.

Compound `CS(=O)C(c1ccc(Cl)cc1)c1ccc(Cl)cc1` (stereo not drawn) yielded a melting point of 110 °C. As for `COCOc1ccc(C=O)c(O)c1`, the figure is 52 to 53 °C; as for `CCN1CCN(C(=O)Cc2ccc(I)cc2)CC1`, 81 to 83 °C; as for `O=C(O)CCc1cc2ccccc2n1S(=O)(=O)c1ccccc1`, 180 to 185 °C. `CON=Cc1ccc2c(c1CN1CCN(C)CC1)OCO2`: the melting point lay in the range of 100 to 102 °C.

As for `CCCCc1nc(Cl)c(CC(=O)O)n1Cc1ccc(OCc2ccccc2C(=O)O)cc1`, the melting point lay in the range of 170 to 172 °C.

On to `O=C(O)c1cnc2cccc(O)c2c1`, for which the melting point was greater than 260 °C. As to `CC(C)(C)NC(=O)CN1C(=O)[C@@H](CNC(=O)Nc2cccc(Cl)c2)C[C@H](c2ccccc2)c2ccccc21`, the melting point was 156 to 170 °C.

In turn, `COC(=O)NNc1ccccc1OCCSC` registered a melting point of 92 to 94 °C. As for `CCCN(C(=O)C=C(C)C)c1cccc(Br)c1`, the figure is 50 to 51 °C; as for `CCS(=O)(=O)c1ccc(I)cc1`, 78 to 79 °C; as for `Nc1ccc2c(=O)n3c(nc2c1)C(=Cc1ccccc1)CC3`, 268 to 270 °C. To `CCOC(=O)N1CCC(Nc2nc3ncnc(Cl)c3n2Cc2ccc(F)cc2)CC1` belongs 127 °C; to `CC(C)Oc1ccccc1C1(N)C(=O)Nc2ccc(Cl)cc21` (stereo not drawn), 193 °C.

Consider `O=C(c1ccccc1)N1CCC(CSc2ccccc2)CC1`, for which the melting point lay within 76 to 79 °C. Consider `CC(C)=CC(n1cncn1)C(C)(O)C(C)(C)C` (stereo not drawn), for which the melting point was 115 to 116 °C. As for `CC(C)(C)c1ccc(C(=O)c2c(N)sc3c2CCN(Cc2ccccc2)C3)cc1`, the figure is 124 to 125 °C. The compound `COc1ccccc1OCCCc1nc(-c2ccc(Cl)cc2)co1` registered a melting point of 94 to 95 °C. For the compound `COc1ccc2c(C(=O)O)cccc2c1`, the melting point was determined as 180 °C. `Cn1c([N+](=O)[O-])cnc1-c1nc(Cl)c2ccccc2n1` had a melting point of 178 to 181 °C. As for `CS(=O)c1ccc(Oc2ccc(Cl)c(Cl)c2)nc1C#N` (stereo not drawn), the figure is 165 to 167 °C; as for `O=C(O)C1C2CCC(C2)C1NS(=O)(=O)c1ccccc1` (stereo not drawn), 157 to 159 °C; as for `Nc1c(N=O)c(=O)[nH]c(=O)n1Cc1ccc(Cl)cc1`, greater than 320 °C. The compound `COc1ccc(-c2c(Cl)c(CN3C(=O)CCC3=O)nc3sc4c(c23)CCC(=O)C4)cc1` had a melting point of 257 to 258 °C.
